Experiment: Dose–response curve of purified […]s with histidine
Assay type: biochemical
Design: key to Dose-response, AVE of Repeat 1-3 (Fig. 3 k): normalized ΔF/F0 (fluorescence change over baseline)
Method: Fig. 3 Dose–response curves and fluorescence spectrums of […]s. a, c, e, g, i, k Dose–response curve of purified […]s with increasing concentrations of ligand in 100 mM Tris-HCl buffer (pH=7.5). The normalized ΔF/F0 value increased after ligand binding. All data shown are mean ± S.D. (n = 3 biologically independent samples). b, d, f, h, j, l The fluorescence spectra of […]s changed as the ligand concentration increased. All data shown are mean ± S.D. (n = 3 biologically independent samples). Source data are provided as a Source data file.
The study conducted dose–response curve, substrate specificity, and fluorescent spectrum analyses in 100-mM Tris buffer (pH = 7.5), while pH stability experiments were performed in 100-mM Tris buffer at three different pH values (6.5, 7.5, and 8.5) at room temperature. […] protein at a concentration of 0.75 μM, various small molecule concentrations, 1 mM ATP, and 2.5 mM MgCl2 were used in the experiments. Fluorescent signals were detected using a Microplate Reader (Synergy H4, Bio Tek) at an excitation/emission wavelength of 460 nm/510 nm or 480 nm/510 nm. The dose-response curve was determined immediately after the addition of the analyte. The total duration of the measurement was 15 min, with readings taken at one-minute intervals. The dose-response curve was plotted using the fluorescence values obtained after achieving stability in the fluorescence signal. The dose-response curves were fitted using the logistic model LOGISTIC5 available in Origin 2021, which could provide a more adequate fit to asymmetric dose-response data[62],[63]. Excitation spectra were scanned from 300 to 540 nm with a step size of 5 nm, and the emission wavelength was set to 560 nm. Emission spectra were scanned from 470 to 700 nm with a step size of 5 nm, and the excitation wavelength was set to 450 nm. The thermal stability of […] was analyzed using the UNcle multifunctional protein stability analysis system. Measurements were performed in 20 mM MOPS buffer with 2 mM DTT at a sample concentration of 1 mg/mL. Absolute fluorescence quantum yields were measured using an absolute photoluminescence quantum yield spectrometer (FS5, Edinburgh). […]
Supplementary Fig. 2 Dose–response curves and fl uorescen ce spectr ums of GEC FINDERs. a and c, Dose– re spons e curves of puri fi ed GECF INDE R-P he1 and 2 with increas ing concen tra tions of phenylalanine (1 nM to 100 μM). The norm alized ΔF/F 0 value increas ed aft er phenylalanine binding (4 60 nm excita tion) . b and d, The fl uore scen ce spect ra of GECF IN DER-P he1 and 2 changed as the phe nylalanine concen tra tion incre ased fro m 1 nM to 100 μM. e and g, Dose–re spon se curv es of puri fied GECF IN DER-Il e1 and 2 with increas ing concen tra tio ns of isoleucine (50 nM to 10 mM). The norm alized ΔF/F 0 value increas ed aft er isoleucine binding (4 80 nm excita tion) . f and h, The fl uore scen ce spect ra of GECF INDE R-Il e1 and 2 change d as the isoleucine concen tration increas ed fro m 0.5 μM to 10 mM. i, Dose–re spon se curv e of puri fi ed GECF INDE R-H is1 with increas ing concen tra tio ns of histid ine (5 nM to 1 mM). The Norm alized ΔF/F 0 increas ed aft er histidine binding (480 nm excita tion). j, The fl uore scen ce spect ra of GECFIN DER-H is1 changed as the histid ine concen tra tion increas ed fro m 5 nM to 1 mM. k, Diffe re nce in fl uore scen ce intensity of GECF INDE R-b enzoic aci d in the pre sence of 10 µM benzoic aci d compare d to the cont ro l (0 µM benzoic aci d). […] (n=3 biological ly independent samples). *p ≤ 0.05, ***p ≤ 0.001, ****p ≤ 0.0001, and n.s. indicat ed no signifi can t diffe re nce (S tude nt’s two-t aile d t-t est). Source data are provi ded as a Source Data file . […]

N[C@@H](Cc1cnc[nH]1)C(=O)O [His]
Dose-response, AVE of Repeat 1-3 (Fig. 3 k) (His 0.005 μM): -4.366e-17
Dose-response, AVE of Repeat 1-3 (Fig. 3 k) (His 0.01 μM): 0.01906
Dose-response, AVE of Repeat 1-3 (Fig. 3 k) (His 0.05 μM): 0.01899
Dose-response, AVE of Repeat 1-3 (Fig. 3 k) (His 0.5 μM): 0.05174
Dose-response, AVE of Repeat 1-3 (Fig. 3 k) (His 5 μM): 0.1739
Dose-response, AVE of Repeat 1-3 (Fig. 3 k) (His 10 μM): 0.234
Dose-response, AVE of Repeat 1-3 (Fig. 3 k) (His 25 μM): 0.2903
Dose-response, AVE of Repeat 1-3 (Fig. 3 k) (His 50 μM): 0.3383
Dose-response, AVE of Repeat 1-3 (Fig. 3 k) (His 100 μM): 0.377
Dose-response, AVE of Repeat 1-3 (Fig. 3 k) (His 500 μM): 0.4545
Dose-response, AVE of Repeat 1-3 (Fig. 3 k) (His 750 μM): 0.4382
Dose-response, AVE of Repeat 1-3 (Fig. 3 k) (His 1000 μM): 0.4348
fluorescence intensity, AVE of 3 repeats (Supplementary Fig. 3 h, His 0.75 mM): 10877
